Reference: PubChem BioAssay (NCI)
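Step 1: Grow cells in 96-well plates. Step 2: Expose to compound for 48 hours at 5 concentrations. Step 3: Interpolate endpoints linearly; if unreached, use highest concentration. GI50 = concentration required for 50% inhibition of growth. The concentration for full growth arrest is given as TGI.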

Tests used:
Assay in all cases: inhibition of tumour cell growth, NCI panel, 48 h
[1] = test system: 786-0 renal
[2] = test system: EKVX NSCLC
[3] = test system: HCC-2998 colon
[4] = test system: HL-60(TB) leukemia
[5] = test system: HOP-62 NSCLC
[6] = test system: HT29 colon
[7] = test system: NCI-H226 lung
[8] = test system: NCI-H460 lung
[9] = test system: NCI-H522 lung
[10] = test system: OVCAR-8 ovarian

In the case of `Nc1nc([Se])c2ncn(C3OC(CO)C(O)C3O)c2n1` (stereo not drawn), the GI50 [1] is reported as 17.2 µM, the TGI [1] is reported as > 100 µM and the GI50 [2] is reported as 37.6 µM. The TGI [2] was > 100 µM, the GI50 [3] was 17.9 µM and the TGI [3] was > 100 µM. For the same compound, the GI50 [4] was 4.49 µM, the TGI [4] was > 100 µM and the GI50 [5] was 3.73 µM. For the same compound, the TGI [5] was > 100 µM, the GI50 [6] was 4.29 µM and the TGI [6] was 82.9 µM. The GI50 [7] was 9.29 µM, the TGI [7] was > 100 µM and the GI50 [8] was 4.54 µM. For the same compound, the TGI [8] was 57.1 µM, the GI50 [9] was 42.5 µM and the TGI [9] was > 100 µM. For the same compound, the GI50 [10] was 3.86 µM and the TGI [10] was > 100 µM.
Compound `CCOCCCn1c2c(c3c(O)cccc31)C(=O)c1ccccc1-2` has a GI50 [1] of 22 µM, a TGI [1] of 51.9 µM and a GI50 [2] of 24.3 µM. For the same compound, the TGI [2] was 79 µM, the GI50 [3] was 22.1 µM and the TGI [3] was 64.3 µM. It also gave a GI50 [4] of 13.2 µM, a TGI [4] of 31.4 µM and a GI50 [5] of 17.8 µM. The TGI [5] was 48 µM, the GI50 [6] was 30.2 µM and the TGI [6] was > 100 µM. It also gave a GI50 [7] of 24.1 µM, a TGI [7] of 81.6 µM and a GI50 [8] of 21.6 µM. For the same compound, the TGI [8] was 63.9 µM, the GI50 [9] was 14 µM and the TGI [9] was 35.7 µM. For the same compound, the GI50 [10] was 31.1 µM and the TGI [10] was > 100 µM.
Work on `CCC(C)Nc1ccc(N)cc1` (stereo not drawn) yielded a GI50 [1] of 3.89 µM, a TGI [1] of 14.3 µM and a GI50 [2] of 3.47 µM. For the same compound, the TGI [2] was 14.8 µM, the GI50 [3] was 4.39 µM and the TGI [3] was 16.1 µM. The GI50 [4] was 1.48 µM, the TGI [4] was 5.05 µM and the GI50 [5] was 4.14 µM. It also gave a TGI [5] of 14.9 µM, a GI50 [6] of 3.16 µM and a TGI [6] of 10.7 µM. For the same compound, the GI50 [7] was 4.39 µM, the TGI [7] was 19 µM and the GI50 [8] was 3.85 µM. It also gave a TGI [8] of 13.9 µM, a GI50 [9] of 3.07 µM and a TGI [9] of 9.07 µM. It also gave a GI50 [10] of 4.19 µM and a TGI [10] of 22.2 µM.
For `CNC(=O)c1c(NC(=O)c2ccc(C(C)(C)C)cc2)sc2c1CCC(=O)C2`, the GI50 [1] was 0.434 µM, the TGI [1] was 1.83 µM and the GI50 [2] was 0.381 µM. For the same compound, the TGI [2] was 1.7 µM, the GI50 [3] was 0.581 µM and the TGI [3] was 2.04 µM. For the same compound, the GI50 [4] was 0.261 µM, the TGI [4] was 1.58 µM and the GI50 [5] was 0.835 µM. The TGI [5] was 3.32 µM, the GI50 [6] was 0.263 µM and the TGI [6] was 1.56 µM. It also gave a GI50 [7] of 0.558 µM, a TGI [7] of 1.99 µM and a GI50 [8] of 0.352 µM. The TGI [8] was 1.47 µM, the GI50 [9] was 0.197 µM and the TGI [9] was 1.41 µM. The GI50 [10] was 0.292 µM and the TGI [10] was 3.19 µM.
`COc1ccc2c(c1)c(-c1nc(-c3c[nH]c4ccncc34)cs1)cn2C` was tested, and the GI50 [1] was 1.7 µM, the TGI [1] was 3.24 µM and the GI50 [2] was 1.76 µM. The TGI [2] was 3.4 µM, the GI50 [3] was 1.85 µM and the TGI [3] was 3.35 µM. It also gave a GI50 [4] of 1.68 µM, a TGI [4] of 3.5 µM and a GI50 [5] of 1.82 µM. The TGI [5] was 3.45 µM, the GI50 [6] was 1.2 µM and the TGI [6] was 2.62 µM. The GI50 [7] was 1.88 µM, the TGI [7] was 3.9 µM and the GI50 [8] was 1.73 µM. It also gave a TGI [8] of 3.31 µM, a GI50 [9] of 1.65 µM and a TGI [9] of 3.25 µM. It also gave a GI50 [10] of 1.99 µM and a TGI [10] of 3.82 µM.
In the case of `Cc1cccc(C)c1NC(=O)C1=NC(=S)NC(c2ccccc2)C1c1nc2ccccc2s1` (stereo not drawn), the TGI [1] is reported as > 100 µM, the TGI [2] is reported as > 100 µM and the TGI [3] is reported as > 100 µM. The TGI [4] was > 100 µM, the TGI [6] was > 100 µM and the TGI [7] was > 100 µM. For the same compound, the TGI [8] was > 100 µM, the TGI [9] was > 100 µM and the TGI [10] was > 100 µM.
With `O=[N+]([O-])C=C(c1ccc(Cl)cc1)c1ccc(Cl)cc1` the TGI [1] was 30.6 µM, the TGI [2] was 32.5 µM and the TGI [3] was 34.4 µM. For the same compound, the TGI [4] was 44 µM, the TGI [5] was 37.5 µM and the TGI [6] was 35.5 µM. The TGI [7] was 30.7 µM, the TGI [8] was 36.7 µM and the TGI [9] was 28.8 µM. The TGI [10] was 36.3 µM.
For `Cc1cccc(C2SCc3nc4ccccc4n32)c1` (stereo not drawn), the TGI [1] was 96.2 µM, the TGI [2] was 68.4 µM and the TGI [4] was 33.5 µM. The TGI [5] was 66.6 µM, the TGI [6] was > 100 µM and the TGI [7] was 60.9 µM. The TGI [8] was > 100 µM, the TGI [9] was 60.7 µM and the TGI [10] was > 100 µM.
With `COc1ccc2c3c([nH]c2c1[N+](=O)[O-])C(C)N(Cc1ccccc1)CC3` (stereo not drawn) the TGI [1] was > 100 µM, the TGI [2] was > 100 µM and the TGI [3] was > 100 µM. For the same compound, the TGI [4] was 6.1 µM, the TGI [5] was 7.12 µM and the TGI [6] was 13.7 µM. The TGI [7] was > 100 µM, the TGI [8] was 14.1 µM and the TGI [10] was > 100 µM.
For `CCc1cccc(C)c1NC(=O)C(=O)CC(=O)c1ccc(Cl)s1`, the TGI [1] was > 100 µM, the TGI [2] was > 100 µM and the TGI [3] was > 100 µM. For the same compound, the TGI [4] was > 100 µM, the TGI [5] was > 100 µM and the TGI [6] was > 100 µM. The TGI [7] was > 100 µM, the TGI [8] was > 100 µM and the TGI [10] was > 100 µM.
For `COc1ccc(Cc2coc3ccccc3c2=O)cc1OC`, the TGI [1] was > 100 µM, the TGI [2] was > 100 µM and the TGI [4] was > 100 µM. The TGI [5] was > 100 µM, the TGI [6] was > 100 µM and the TGI [7] was > 100 µM. The TGI [8] was > 100 µM, the TGI [9] was > 100 µM and the TGI [10] was > 100 µM.
For `Cc1cccc2nc3ccccc3c(Nc3ccc(NS(C)(=O)=O)cc3)c12`, the GI50 [1] was 5.03 µM, the TGI [1] was 16.6 µM and the GI50 [3] was 8.09 µM. It also gave a TGI [3] of 21.4 µM, a GI50 [4] of 2.05 µM and a TGI [4] of 5.53 µM. The GI50 [5] was 4.69 µM, the TGI [5] was 17 µM and the GI50 [6] was 5.18 µM. For the same compound, the TGI [6] was 24.8 µM, the GI50 [7] was 2.2 µM and the TGI [7] was 7.15 µM. It also gave a GI50 [8] of 2.45 µM, a TGI [8] of 11.7 µM and a GI50 [9] of 8.09 µM. The TGI [9] was 22 µM, the GI50 [10] was 6.23 µM and the TGI [10] was 30.9 µM.
`COC(=O)[C@H](Cc1cnc[nH]1)NC(=O)[C@@H](NC(=O)Nc1cc(C(F)(F)F)cc(C(F)(F)F)c1)C(C)C` was tested, and the GI50 [1] was 18.9 µM, the TGI [1] was 38.6 µM and the GI50 [3] was 15.9 µM. For the same compound, the TGI [3] was 30.7 µM, the GI50 [4] was 20.2 µM and the TGI [4] was 39.3 µM. For the same compound, the GI50 [5] was 19 µM, the TGI [5] was 33.7 µM and the GI50 [6] was 18.1 µM. For the same compound, the TGI [6] was 33.8 µM, the GI50 [7] was 16.8 µM and the TGI [7] was 36 µM. For the same compound, the GI50 [8] was 18.7 µM, the TGI [8] was 37.3 µM and the GI50 [9] was 13.1 µM. It also gave a TGI [9] of 27 µM, a GI50 [10] of 16.5 µM and a TGI [10] of 31.6 µM.
With `Nc1ccc(C2=CC(c3ccc(Cl)cc3)N3C=CSC3=N2)cc1` (stereo not drawn) the GI50 [1] was 6.74 µM, the TGI [1] was 25.7 µM and the GI50 [3] was 1.83 µM. The TGI [3] was 3.61 µM, the GI50 [4] was 6.13 µM and the TGI [4] was 53.5 µM. It also gave a GI50 [5] of 4.38 µM, a TGI [5] of 16.4 µM and a GI50 [6] of 2.79 µM. For the same compound, the TGI [6] was 6.98 µM, the GI50 [7] was 9.36 µM and the TGI [7] was > 100 µM. For the same compound, the GI50 [8] was 20.2 µM, the TGI [8] was > 100 µM and the GI50 [9] was 3.51 µM. It also gave a TGI [9] of 11.3 µM, a GI50 [10] of 4.16 µM and a TGI [10] of 48.1 µM.
For `CC1=C(C(=O)Nc2ccccc2)C(c2cccc3ccccc23)C(C(=O)Nc2ccccc2)=C(C)N1`, the TGI [1] was 52.5 µM, the TGI [2] was 37.6 µM and the TGI [3] was 38.6 µM. It also gave a TGI [4] of 40 µM, a TGI [5] of 35.4 µM and a TGI [6] of 36.2 µM. For the same compound, the TGI [7] was 16 µM, the TGI [9] was 35.6 µM and the TGI [10] was 35.8 µM.
